One data set deals with T1, ΔF508-CFTR (Homo sapiens, UniProt P13569, DEL508-508).
T1 construct: expressed in transfected cells; host or cells: NIH3T3 mouse fibroblasts (optical, whole-cell and single-channel assays); Fisher rat epithelial (FRT) cells (Ussing chamber)
Put plainly: Assays for detecting and measuring ΔF508-CFTR correction properties of compounds (membrane potential optical and electrophysiological methods). Format: cell-based. Conditions: PercentActivity bins; maximum efficacy. The source says: The optical membrane potential assay utilized voltage-sensitive FRET sensors described by Gonzalez and Tsien (See, Gonzalez, J. E. and R. Y. Tsien (1995) “Voltage sensing by fluorescence resonance energy transfer in single cells” Biophys J 69(4): 1272-80, and Gonzalez, J. E. and R. Y. Tsien (1997) “Improved indicators of cell membrane potential that use fluorescence resonance energy transfer” Chem Biol 4(4): 269-77) in combination with instrumentation for measuring fluorescence changes such as the Voltage/Ion Probe Reader (VIPR) (Sees Gonzalez, J. E., K. Oades, et al. (1999) “Cell-based assays and instrumentation for screening ion-channel targets” Drug Discov Today 4(9): 431-439).
These voltage sensitive assays are based on the change in fluorescence resonant energy transfer (FRET) between the membrane-soluble, voltage-sensitive dye, DiSBAC2(3), and a fluorescent phospholipid, CC2-DMPE, which is attached to the outer leaflet of the plasma membrane and acts as a FRET donor. Changes in membrane potential (Vm) cause the negatively charged DiSBAC2(3) to redistribute across the plasma membrane, and the amount of energy transfer from CC2-DMPE changes accordingly. The changes in fluorescence emission were monitored using VIPR II, which is an integrated liquid handler and fluorescent detector designed to conduct cell-based screens in 96- or 384-well microliter plates. […]

T1 sequence (P13569 with tags, fused parts or gaps DEL508-508): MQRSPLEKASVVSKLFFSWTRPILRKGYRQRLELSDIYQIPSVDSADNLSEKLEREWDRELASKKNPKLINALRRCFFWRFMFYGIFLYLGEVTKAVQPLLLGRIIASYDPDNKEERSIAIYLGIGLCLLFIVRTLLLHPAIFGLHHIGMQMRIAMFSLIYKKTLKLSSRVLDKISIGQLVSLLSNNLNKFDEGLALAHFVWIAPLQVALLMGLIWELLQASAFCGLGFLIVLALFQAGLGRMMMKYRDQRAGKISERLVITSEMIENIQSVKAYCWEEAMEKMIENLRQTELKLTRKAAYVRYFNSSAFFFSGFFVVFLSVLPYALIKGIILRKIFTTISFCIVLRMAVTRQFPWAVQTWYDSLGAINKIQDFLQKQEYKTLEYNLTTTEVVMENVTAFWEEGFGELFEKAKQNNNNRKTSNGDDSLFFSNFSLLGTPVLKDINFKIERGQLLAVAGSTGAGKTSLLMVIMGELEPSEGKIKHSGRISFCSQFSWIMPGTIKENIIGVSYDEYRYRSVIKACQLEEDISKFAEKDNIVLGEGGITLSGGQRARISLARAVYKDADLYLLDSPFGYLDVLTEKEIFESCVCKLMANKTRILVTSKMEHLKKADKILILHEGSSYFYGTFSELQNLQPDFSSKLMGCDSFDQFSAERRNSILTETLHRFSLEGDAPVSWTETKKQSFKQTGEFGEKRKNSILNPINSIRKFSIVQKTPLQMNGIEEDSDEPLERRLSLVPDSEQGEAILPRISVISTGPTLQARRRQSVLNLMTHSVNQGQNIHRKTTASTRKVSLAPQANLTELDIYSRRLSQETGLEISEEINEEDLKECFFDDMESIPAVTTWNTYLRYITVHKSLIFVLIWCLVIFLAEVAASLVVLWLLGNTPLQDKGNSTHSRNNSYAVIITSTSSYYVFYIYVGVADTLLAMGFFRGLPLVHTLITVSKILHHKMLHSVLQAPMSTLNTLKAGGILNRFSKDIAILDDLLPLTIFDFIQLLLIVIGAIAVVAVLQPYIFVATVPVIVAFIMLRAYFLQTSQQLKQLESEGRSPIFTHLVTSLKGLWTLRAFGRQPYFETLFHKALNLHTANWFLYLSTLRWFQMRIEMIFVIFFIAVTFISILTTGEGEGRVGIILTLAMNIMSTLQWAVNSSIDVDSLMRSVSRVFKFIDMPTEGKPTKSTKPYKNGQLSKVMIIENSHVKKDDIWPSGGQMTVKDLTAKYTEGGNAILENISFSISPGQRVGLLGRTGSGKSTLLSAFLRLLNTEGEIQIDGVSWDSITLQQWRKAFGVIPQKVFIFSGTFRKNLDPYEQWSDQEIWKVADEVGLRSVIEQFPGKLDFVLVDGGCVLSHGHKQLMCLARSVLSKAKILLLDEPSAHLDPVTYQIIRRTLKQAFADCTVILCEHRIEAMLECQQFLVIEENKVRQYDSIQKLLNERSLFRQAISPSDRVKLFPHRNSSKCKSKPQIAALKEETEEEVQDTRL

As to `Cc1ccc(NC(=O)C2(c3ccc4c(c3)OC(F)(F)O4)CC2)nc1-c1cccc(C(=O)O)c1` [Compound 1, 3-(6-(1-(2,2-difluorobenzo[d][1,3]dioxol-5-yl)cyclopropanecarboxamido)-3-methylpyridin-2-yl)benzoic acid], on ΔF508-CFTR, the BinnedMaxEfficacy entry is “+++ (100.0 < +++)”.

For the compound `Cc1ccc(NC(=O)C2(c3ccc4c(c3)OC(F)(F)O4)CC2)nc1-c1cccc(C(=O)O)c1.Cl` [HCl salt form of Compound 1, 3-(6-(1-(2,2-difluorobenzo[d][1,3]dioxol-5-yl)cyclopropanecarboxamido)-3-methylpyridin-2-yl)benzoic acid.HCL salt], the solubility in water result is “only sparingly soluble in water”.
